# Columns and labels:
# [1] = Stability in liver microsome of mice; assay type: in vitro ADME; conditions: liver microsomes; Mouse liver microsome 0.5 mg protein/mL, compound 1 μM, 37° C.
# Procedure: (§1) Assay 1: Stability assessment of the compounds of the present invention in liver microsome of mice and dogs
# (§2) Test substances: the compounds of the present invention, wherein the structures and preparations thereof were as described above.
# (§3) The composition of the incubation system:
# (§4) Preparation of Test Substances:
# (§5) An appropriate amount of the compound was accurately weighed and dissolved in DMSO to prepare a 5.0 mM stock solution. The 5.0 mM stock solution was diluted to 1.0 mM with DMSO, and finally diluted with water to a 10 μM test substance working solution for use (the DMSO content in the reaction system was 0.1%).
# (§6) (1) The liver microsome (20 mg protein/mL) was taken out from the −80° C. refrigerator, pre-incubated at 37° C. with a water-bathing constant temperature vibrator for 3 minutes, and melted for use.
# (§7) (2) A mixed solution of the incubation system (excluding compounds and β-NADPH) according to the above “composition of the incubation system” for the assay was prepared, and pre-incubated at 37° C. with a water-bathing constant temperature vibrator for 2 minutes.
# (§8) (3) Control group (excluding β-NADPH): 30 μL of water and 30 μL of compound working solution (10 μM) were added to 240 μL of the mixed solution of the incubation system of step (2), and vortexed for 30 seconds to mix well. The total reaction volume was 300 μL. A duplicate sample was prepared. The sample was incubated at 37° C. with a water-bathing constant temperature vibrator. The timekeeping began and the sampling time points were set at 0 minute and 60 minutes.
# (§9) (4) Sample group: 70 μL of β-NADPH solution (10 mM) and 70 μL of compound working solution (10 μM) were added to 560 μL of the mixed solution of step (2). The total reaction volume was 700 μL. The resulting mixture was vortexed for 30 seconds to mix well. A duplicate sample was prepared. The sample was incubated at 37° C. with a water-bathing constant temperature vibrator. The timekeeping began and the sampling time points were set at 0 minute, 5 minutes, 10 minutes, 20 minutes, 30 minutes, and 60 minutes after timekeeping.
# (§10) (5) After vortexing for 3 minutes, the sample was centrifuged at 4000 rpm for 10 minutes.
# (§11) (6) 50 μL of the supernatant was taken and 150 μL of water was added. The resulting mixture was vortexed to mix well, and analyzed by LC/MS/MS.
# (§12) The half-life (t1/2) and clearance rate (Cl) were calculated using the following first-order kinetic formula:
# (§13) Vd=1/protein content in liver microsome
# (§14) Note: k was the slope of the logarithm of the remaining amount of the compound versus time, and Vd was the apparent distribution volume.
# [2] = molecular target: T1, H1299 cell pAxl (Homo sapiens, UniProt P30530); assay: Inhibitory activity on the cell pAxl (Western Blot); assay type: cell-based; conditions: H1299 cells, compound 1.1, 3.3, 10, 30 nM, hGAS6 200 ng/mL
# T1 construct: endogenous in cells; host or cells: H1299
# T1 sequence (P30530 26-894): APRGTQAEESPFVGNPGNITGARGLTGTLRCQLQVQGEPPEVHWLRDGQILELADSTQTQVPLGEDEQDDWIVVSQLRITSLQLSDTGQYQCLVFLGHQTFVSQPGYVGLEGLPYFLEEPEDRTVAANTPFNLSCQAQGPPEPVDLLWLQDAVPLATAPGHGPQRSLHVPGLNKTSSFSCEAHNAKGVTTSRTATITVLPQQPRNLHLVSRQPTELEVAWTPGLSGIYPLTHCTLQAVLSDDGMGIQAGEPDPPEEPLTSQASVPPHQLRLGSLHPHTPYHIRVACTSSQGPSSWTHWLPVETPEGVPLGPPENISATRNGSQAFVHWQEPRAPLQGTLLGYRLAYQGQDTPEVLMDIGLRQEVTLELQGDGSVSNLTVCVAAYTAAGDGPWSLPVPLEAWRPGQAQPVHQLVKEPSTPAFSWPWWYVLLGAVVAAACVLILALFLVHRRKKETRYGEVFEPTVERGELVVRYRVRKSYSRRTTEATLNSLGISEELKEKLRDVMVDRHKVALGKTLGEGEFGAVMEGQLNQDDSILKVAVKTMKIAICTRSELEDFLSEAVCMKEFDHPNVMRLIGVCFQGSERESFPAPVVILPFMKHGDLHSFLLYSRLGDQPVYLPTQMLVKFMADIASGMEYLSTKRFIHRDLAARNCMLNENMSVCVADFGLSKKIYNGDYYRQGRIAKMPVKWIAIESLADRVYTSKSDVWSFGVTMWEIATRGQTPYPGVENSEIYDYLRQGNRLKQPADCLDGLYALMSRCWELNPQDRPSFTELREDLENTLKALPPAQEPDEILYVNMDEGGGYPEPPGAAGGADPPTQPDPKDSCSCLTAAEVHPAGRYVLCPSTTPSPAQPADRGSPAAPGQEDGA
# Procedure: Assay 5: Test for Inhibitory Activities of the Compounds of the Present Invention on the Cell pAxl
# H1299 is a non-small cell lung cancer cell.
# Test substances: the compounds of the present invention, wherein the structures thereof were as described above.
# Test equipment: protein electrophoresis apparatus (manufactured by Bio Rad), transfer unit (manufactured by Bio Rad), exposure unit (manufactured by Tanon), CO2, cell incubator (manufactured by Thermo).
# The H1299 cells were inoculated in a 6-well plate (containing 10% FBS 1640 medium, 5×10^5 cells per well), and adherent cells were cultivated at 37° C. in a 5% CO2 condition for 18 hours. The cells were starved overnight. Different concentrations of compounds were added. The final compound concentrations were 1.1, 3.3, 10, and 30 nM, and the final DMSO content was 1‰. The negative control wells contained the medium containing 1‰ DMSO. After incubating at 37° C. in a 5% CO2 condition for 60 minutes, hGAS6 (R&D, final concentration 200 ng/mL) was added to each well. After further incubating for 60 minutes, the cell total protein was extracted for Western Blot and the […] values were calculated using GraphPad 5.0 software. The inhibitory activity of the compound on the cell pAxl was examined.
# [3] = Stability in liver microsome of dogs; assay type: in vitro ADME; conditions: liver microsomes; Dog liver microsome 0.5 mg protein/mL, compound 1 μM, 37° C.
# Procedure: as §1, §2, §3, §4, §5, §6, §7, §8, §9, §10, §11, §12, §13, §14
structure (smiles),measurement,setting,value
"COc1cc2nccc(Oc3ncc(NC(=O)c4cn(C5CC5)nc(-c5ccc(F)cc5)c4=O)cn3)c2cc1OC [Compound 44, 2-cyclopropyl-N-(2-((6,7-dimethoxyquinolin-4-yl)oxy)pyrimidine-5-yl)-6-para-fluorophenyl-5-oxo-2,5-dihydropyridazine-4-carboxamide]",half-life at 1 μM,[1],2.13 h
same,microsomal CLint at 1 μM,[1],10.8 µL/min/mg
same,IC50,[2],3.3 to 10 nM
same,half-life at 1 μM,[3],3.73 h
same,microsomal CLint at 1 μM,[3],6.2 µL/min/mg
